Data reported in patent US9550796B2, “Pyrrolopyrrolone derivatives and their use as BET inhibitors” (NOVARTIS AG, priority 2013, dated 2017).

Columns and labels:
BRD4 = BRD4 (Homo sapiens (Human), UniProt O60885); test: TR-FRET in-vitro binding assay for BRD4; settings: 45 nM His-Brd4(44-477), acetyl-histone H4 (AcK 5, 8, 12, 16) peptide
Description: (§1) TR-FRET In-Vitro Binding Assays for BRD2, BRD3, and BRD4: All assays were performed in 384-well microtiter plates. […] Liquid handling and incubation steps were done on an Innovadyne Nanodrop Express equipped with a robotic arm (Thermo CatX, Perkin Elmer/Caliper Twister II) and an incubator (Liconic STX40, Thermo Cytomat 2C450). The assay plates were prepared by addition of 50 nl per well of compound solution in 90% DMSO HummingBird nanodispenser (Zinsser Analytic). […] Reactions were incubated at 30° C. for 35 minutes. […] After 35 minutes incubation at 30° C., plates were measured in a Perkin Elmer EnVision multilabel reader. […] The stock solutions were stored at […] if not used immediately. For the test procedure the vials were defrosted and identified by a scanner whereby a working sheet was generated that guided the subsequent working steps. Compound dilutions were made in 96 well plates. This format enabled the assay of maximally […] at 8 concentrations (single points) including 4 reference compounds, if desired (known BET inhibitors from the prior art, for this and other assays of the type disclosed herein). The dilution protocol included the production of “pre-dilution plates”, “master plates” and “assay plates”. Polypropylene 96-well plates were used as pre-dilution plates. […] All dilution steps were done on a HamiltonSTAR robot. […] Identical “assay plates” were then prepared by pipetting 50 nL each of compound dilutions of the “master plates” into 384-well “assay plates” by means of a HummingBird 384-channel dispenser. These plates were used directly for the assay which was performed in a total volume of 13.55 μL.

BRD3 = BRD3 (Homo sapiens (Human), UniProt Q15059); test: TR-FRET in-vitro binding assay for BRD3; settings: 45 nM His-Brd3(20-477), acetyl-histone H4 (AcK 5, 8, 12, 16) peptide
Sequence of BRD3 (Q15059 20-477): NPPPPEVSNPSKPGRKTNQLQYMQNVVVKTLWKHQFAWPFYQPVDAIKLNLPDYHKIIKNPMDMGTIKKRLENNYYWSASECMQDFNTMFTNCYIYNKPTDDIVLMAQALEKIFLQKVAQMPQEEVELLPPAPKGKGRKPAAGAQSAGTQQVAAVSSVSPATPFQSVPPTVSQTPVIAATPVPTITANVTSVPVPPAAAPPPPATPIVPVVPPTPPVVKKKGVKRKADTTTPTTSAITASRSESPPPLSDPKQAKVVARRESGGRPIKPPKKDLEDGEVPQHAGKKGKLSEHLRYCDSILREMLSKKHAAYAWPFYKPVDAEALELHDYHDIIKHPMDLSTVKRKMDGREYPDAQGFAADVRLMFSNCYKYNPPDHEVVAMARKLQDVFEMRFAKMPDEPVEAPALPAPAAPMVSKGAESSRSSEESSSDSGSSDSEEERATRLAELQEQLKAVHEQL
Description: as §1

CREBBP = CREBBP (Homo sapiens (Human), UniProt Q92793); test: AlphaScreen in-vitro binding assay for CREBBP; settings: 324 nM His-CREBBP (1081-1197), acetyl-histone H4 (AcK 5, 8, 12) peptide
Sequence of CREBBP (Q92793 1081-1197): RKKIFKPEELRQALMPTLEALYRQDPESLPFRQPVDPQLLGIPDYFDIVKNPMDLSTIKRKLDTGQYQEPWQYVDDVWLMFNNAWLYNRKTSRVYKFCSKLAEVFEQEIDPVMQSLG
Description: AlphaScreen In-Vitro Binding Assay for CREBBP
In order to assess bromodomain selectivity, we set up a binding assay using the bromodomain encoded by the CREBBP gene. […] The assay was started by stepwise addition of 4.5 μL per well of bromo domain protein (50 mM HEPES, pH 7.5, 0.005% Tween20, 0.02% BSA, 150 mM NaCl, 324 nM His-CREBBP (1081-1197) (custom production at Viva Biotech Ltd.)) and 4.5 μL per well of peptide solution (50 mM HEPES, pH 7.5, 0.005% Tween20, 0.02% BSA, 150 mM NaCl, 120 nM acetyl-histone H4 (AcK 5, 8, 12) (Biosyntan GmbH)). Reactions were incubated at 30° C. for 35 minutes. Subsequently 4.5 μL per well detection mix (50 mM HEPES, pH 7.5, 0.005% Tween20, 0.02% BSA, 150 mM NaCl, 45 μg/ml Ni-chelate acceptor beads, 45 μg/mL streptavidin-donor beads) (Perkin Elmer)) were added. After 60 minutes incubation at room temperature, plates were measured in a Perkin Elmer EnVision multilabel reader. IC50 values were determined from percent inhibition values at different compound concentrations by non-linear regression analysis.
Test compounds were dissolved in DMSO (10 mM) and transferred into 1.4 mL flat bottom or V-shaped Matrix tubes carrying a unique 2D matrix. The stock solutions were stored at […] if not used immediately. For the test procedure the vials were defrosted and identified by a scanner whereby a working sheet was generated that guided the subsequent working steps. Compound dilutions were made in 96 well plates. This format enabled the assay of maximally […] at 8 concentrations (single points) including 4 reference compounds, if desired (known BET inhibitors from the prior art, for this and other assays of the type disclosed herein). The dilution protocol included the production of “pre-dilution plates”, “master plates” and “assay plates”.
Polypropylene 96-well plates were used as pre-dilution plates. A total of 4 pre-dilution plates were prepared including 10 test compounds each on the plate positions A1-A10, one standard compound at A11 and one DMSO control at […]. All dilution steps were done on a HamiltonSTAR robot.
30 μL of individual compound dilutions including standard compound and controls of the 4 “pre-dilution plates” were transferred into a 384-well “master plate” including the following concentrations 10000, […], 1000, 300, 100, 30, 10 and 3 μM, respectively in 90% of DMSO.
Identical “assay plates” were then prepared by pipetting 50 nL each of compound dilutions of the “master plates” into 384-well “assay plates” by means of a HummingBird 384-channel dispenser. These plates were used directly for the assay which was performed in a total volume of 13.55 μL.

MV-4-11 = test: Cell growth inhibition assay (CellTiter-Glo), MV-4-11; assay type: cell-based, human; settings: MV-4-11 cells, 4 days; for GI50: Homo sapiens, MV4-11, 96 h, half-maximal growth inhibition; for MV-4-11 TGI: total growth inhibition
Description: (§2) Cell Growth Inhibition Assay
(§3) The human leukemia cell lines MV-4-11, THP-1 and K-562 were employed to characterize the effect of BET inhibitors on cellular proliferation and viability. Cells were obtained from the American Type Culture Collection (ATCC) and cultured at 37° C. in a humidified 5% CO2 incubator in the following media: MV-4-11: DMEM high glucose (Animed #1-26F01-I), 10% FCS (Animed #2-01F26-I), 4 mM L-Glutamine (Animed #5-10K50), 1 mM Sodium Pyruvate (Animed # G03625P), 1× Penicillin-Streptomycin (Animed # F12478P); K-562: Iscove's MEM (Animed #1-28F16-I), 10% FCS (Animed #2-01F26-I), 4 mM L-Glutamine (Animed #5-10K50), 1× Penicillin-Streptomycin (Animed # F12478P); THP-1: RPMI-1640 (Animed #1-41F01-I), 10% FCS (Animed #2-01F26-I), 2 mM L-Glutamine (Animed #5-10K50), 10 mM HEPES (Animed #5-31F100), 1 mM Sodium Pyruvate (Animed # G03625P), 1× Penicillin-Streptomycin (Animed # F12478P). The AML lines MV-4-11 and THP-1 are very sensitive to BET inhibitors and show massive cell death upon BET inhibition (Zuber et al., Nature, 478 (2011), 524-8). Compound-mediated suppression of cell proliferation/viability was assessed by quantification of cellular ATP levels using the CellTiter-Glo (CTG) reagent (Promega). Briefly, cells were seeded in 20 μl fresh medium into 384-well plates, followed by addition of 5 μL medium containing compound dilutions at 5-fold their final intended concentration. Dose-response effects were assessed by 3-fold serial dilutions of the test compound, starting at 10 μM. Following incubation of the cells for 4 days at 37° C. and 5% CO2, the effect of inhibitors on cell viability was quantified following addition of 20 μl CTG and luminescence quantification (integration time: 100 ms) as per vendor manual, using a correspondingly equipped Tecan M200 multi-mode platereader (TECAN, Switzerland). For data analysis, the assay background value determined in wells containing medium, but no cells, was subtracted from all data points. To enable differentiation of cytotoxic from cytostatic compounds, the number of viable cells is assessed relative to that observed at the time of compound addition using a separate cell plate (day 0). The effect of a particular test compound concentration on cell proliferation/viability is expressed as percentage of the background- and day 0-corrected luminescence reading obtained for cells treated with vehicle only (DMSO, 0.1% final concentration), which is set as 100%, whereas that luminescence reading for wells containing medium is set as −100%. Compound concentrations leading to half-maximal (IC50) and total growth inhibition (TGI) were determined using standard four parameter curve fitting.

THP-1 = test: Cell growth inhibition assay (CellTiter-Glo), THP-1; assay type: cell-based, human; settings: THP-1 cells, 4 days; for GI50: Homo sapiens, 96 h, half-maximal growth inhibition; for THP-1 TGI: total growth inhibition
Description: as §2, §3

K-562 = test: Cell growth inhibition assay (CellTiter-Glo), K-562; assay type: cell-based, human; settings: K-562 cells, 4 days; for GI50: Homo sapiens, K562, 96 h, half-maximal growth inhibition; for K-562 TGI: total growth inhibition
Description: as §2, §3

| Compound | IC50 (BRD4) | IC50 (BRD3) | IC50 (CREBBP) | GI50 (MV-4-11) | GI50 (THP-1) | GI50 (K-562) | MV-4-11 TGI (MV-4-11) | THP-1 TGI (THP-1) | K-562 TGI (K-562) |
| --- | --- | --- | --- | --- | --- | --- | --- | --- | --- |
| COc1ncccc1-c1cc2c(n1C)C(c1ccc(Cl)cc1)N(c1cc(C)c3nnc(C)n3c1)C2=O (stereo in doubt) [Example 135, (R)-6-(4-chlorophenyl)-5-(3,8-dimethyl-[1,2,4]triazolo[4,3-a]pyridin-6-yl)-2-(2-methoxypyridin-3-yl)-1-methyl-5,6-dihydropyrrolo[3,4-b]pyrrol-4(1H)-one] | 0.014 µM | 0.021 µM | 0.47 µM | 0.00609 µM | 0.0064 µM | 0.0214 µM | 0.01244 µM | 0.01495 µM | >10 µM |
| Cc1cc(N2C(=O)c3cc(C4=CCOCC4)n(C)c3C2c2ccc(Cl)cc2)cn2c(C)nnc12 (stereo in doubt) [Example 137, (R)-6-(4-chlorophenyl)-2-(3,6-dihydro-2H-pyran-4-yl)-5-(3,8-dimethyl-[1,2,4]triazolo[4,3-a]pyridin-6-yl)-1-methyl-5,6-dihydropyrrolo[3,4-b]pyrrol-4(1H)-one] | < 0.011 µM | 0.013 µM | 0.59 µM | 0.01 µM | 0.0111 µM | 0.0311 µM | 0.01875 µM | 0.02275 µM | >10 µM |
| Cc1cc2c(n1C)C(c1ccc(Cl)cc1)N(c1cc(Cl)c(=O)n(C)c1)C2=O (centres unmarked) [Example 74, 5-(5-chloro-1-methyl-6-oxo-1,6-dihydropyridin-3-yl)-6-(4-chlorophenyl)-1,2-dimethyl-5,6-dihydropyrrolo[3,4-b]pyrrol-4(1H)-one] | 0.023 µM |  |  | 0.0901 µM | 0.0927 µM | 0.273 µM | 0.142 µM | 0.1715 µM | >10 µM |
| Cn1ccc2c1C(c1ccc(Cl)cc1)N(c1cc(Cl)c(=O)n(C)c1)C2=O (centres unmarked) [Example 76, 5-(5-chloro-1-methyl-6-oxo-1,6-dihydropyridin-3-yl)-6-(4-chlorophenyl)-1-methyl-5,6-dihydropyrrolo[3,4-b]pyrrol-4(1H)-one] | 0.037 µM |  |  | 0.107 µM | 0.119 µM | 0.367 µM | 0.178 µM | 0.238 µM | >10 µM |

Second part, led by results:

| IC50 (BRD4) | IC50 (BRD3) | IC50 (CREBBP) | GI50 (MV-4-11) | GI50 (THP-1) | GI50 (K-562) | Compound | MV-4-11 TGI (MV-4-11) | THP-1 TGI (THP-1) | K-562 TGI (K-562) |
| --- | --- | --- | --- | --- | --- | --- | --- | --- | --- |
| 0.012 µM |  |  | 0.00286 µM | 0.00463 µM | 0.0164 µM | Cc1cc(N2C(=O)c3c(C4CC4)cn(C4COC4)c3C2c2ccc(Cl)cc2)cn2c(C)nnc12 (centres unmarked) [Example 18, 6-(4-chlorophenyl)-3-cyclopropyl-5-(3,8-dimethyl-[1,2,4]triazolo[4,3-a]pyridin-6-yl)-1-(oxetan-3-yl)-5,6-dihydropyrrolo[3,4-b]pyrrol-4(1H)-one] | 0.00813 µM | 0.01335 µM | >10 µM |
|  | 0.015 µM | 6.1 µM | 0.00408 µM | 0.00894 µM | 0.0459 µM | Cc1cc(N2C(=O)c3c(C4CC4)cn(C)c3C2c2ccc(Cl)cc2)cn2c(C)nnc12 (centres unmarked) [Example 35, 6-(4-chlorophenyl)-3-cyclopropyl-5-(3,8-dimethyl-[1,2,4]triazolo[4,3-a]pyridin-6-yl)-1-methyl-5,6-dihydropyrrolo[3,4-b]pyrrol-4(1H)-one] | 0.00867 µM | 0.01785 µM | >10 µM |
|  | 0.015 µM | 4.1 µM | 0.00215 µM | 0.00336 µM | 0.018 µM | Cc1cc(N2C(=O)c3c(C4CC4)cn(C)c3[C@H]2c2ccc(Cl)cc2)cn2c(C)nnc12 [Example 36, (R)-6-(4-chlorophenyl)-3-cyclopropyl-5-(3,8-dimethyl-[1,2,4]triazolo[4,3-a]pyridin-6-yl)-1-methyl-5,6-dihydropyrrolo[3,4-b]pyrrol-4(1H)-one] | 0.00622 µM | 0.01091 µM | >10 µM |
|  |  | 1.4 µM | 0.0198 µM | 0.0337 µM | 0.119 µM | CC(=O)Nc1cn(C)c2c1C(=O)N(c1cc(C)c3nnc(C)n3c1)[C@@H]2c1ccc(Cl)cc1 [Example 136, (R)—N-(6-(4-chlorophenyl)-5-(3,8-dimethyl-[1,2,4]triazolo[4,3-a]pyridin-6-yl)-1-methyl-4-oxo-1,4,5,6-tetrahydropyrrolo[3,4-b]pyrrol-3-yl)acetamide] | 0.0395 µM | 0.0792 µM | >10 µM |
